US20250263408A1 (Uniquest Pty Ltd, priority 2022, published 2025)

How the values were obtained:
[1] = test system: Ba/F3-WT (wild type) cells; assay: Ba/F3 Proliferation Assay, Ba/F3-WT (wild type) cells with mIL-3 (Resazurin); assay type: cell-based; settings: Ba/F3-WT cells +mIL-3, 48-hour incubation
Protocol: (§1) Ba/F3-Syk and Ba/F3-WT (wild type) cells were maintained at ≤1×10^6 cell/mL in RPMI (Life Technologies) with 10% FBS at 37° C. and 5% CO2 for a maximum of four weeks. Ba/F3-WT additionally contained 2 ng/mL mIL-3 (R&D Systems) to induce cellular growth. Cells were counted and dispensed at 5000 cells/well using a Multidrop Liquid Dispenser in a volume of 45 μL into black 384-well TC treated plates (Greiner) and incubated for four hours in complete media (+mIL-3 for Ba/F3-WT). Compounds were serially diluted in 100% DMSO, prior to an intermediate dilution in RPMI media. 5 μL of compound (0.4% final DMSO) was added to the cells, followed by a 48-hour incubation period. 5 μL of Resazurin (60 μM final) was then added and cells were incubated at 37° C. for three hours, before fluorescence (λex530/λem585) was measured using an Ensight Multimode Plate Reader (Perkin Elmer).

[2] = biological target: T1, Ba/F3-Syk cells (Homo sapiens, UniProt P43405); assay: Ba/F3 Proliferation Assay, Ba/F3-Syk cells (Resazurin); assay type: cell-based; settings: 48-hour incubation
T1 construct: fused on or other part: Possible but unprinted fusion partner: TEL (ETV6), the usual partner for Ba/F3 lines transformed by Syk; Nothing on a partner is printed
Protocol: as §1

| EC50 [1] [nM] | EC50 [2] [nM] | EC50 ([1]; Mus musculus, BaF3, 48 h) [nM] | Compound |
| --- | --- | --- | --- |
| 3210 | 90.9 |  | 5-{[(2R)-6,6-dimethylmorpholin-2-yllmethoxy}-7-[1-(3-methyloxolan-3-yl)-1H-pyrazol-4-yl]-1,6-naphthyridine [Compound 10.13] |
| 1200 | 274 |  | 7-(1-methyl-1H-pyrrol~3-yl)-5-{[(2S)-2-methylmorpholin-2-yl]methoxy}-1,6-naphthyridine [Compound 10.7] |
| 1680 | 92.2 |  | 7-(1-tert-butyl-1H-pyrazol-4-yl)-5-{[(2R)-2-ethylmorpholin-2-yl]methoxy}-1,6-naphthyridine [Compound 10.15] |
|  | 129 | 2560 | Cn1cc(-c2cc3ncccc3c(OC[C@@H]3CN[C@H]4CCC[C@H]4O3)n2)cn1 (racemic) [Compound 2.53, 5-{[rel-(2R,4aR,7aS)-octahydrocyclopenta[b][1,4]oxazin-2-yl]methoxy}-7-(1-methyl-1H-pyrazol-4-yl)-1,6-naphthyridine] |
|  | 36 | 1600 | C[C@@H]1O[C@@H](COc2nc(-c3cnn(C(C)(C)C)c3)cc3ncccc23)CN[C@@H]1C (racemic) [Compound 2.80, 7-(1-tert-butyl-1H-pyrazol-4-yl)-5-{[rel-(2S,5S,6R)-5,6-dimethylmorpholin-2-yl]methoxy}-1,6-naphthyridine] |
|  | 288 | 1580 | Cn1cc(-c2cc3ncccc3c(OC[C@@H]3CN[C@@H]4CCC[C@@H]4O3)n2)cn1 (relative stereo) [Compound 2.54, 5-{[rel-(2S,4aR,7aS)-octahydrocyclopenta[b][1,4]oxazin-2-yl]methoxy}-7-(1-methyl-1H-pyrazol-4-yl)-1,6-naphthyridine] |
|  | 1330 | > 10000 | Cn1ccc(-c2cc3ncccc3c(OC[C@@H]3CN[C@@H]4C[C@@H]4O3)n2)c1 (relative stereo) [Compound 2.71, 7-(1-methyl-1H-pyrrol-3-yl)-5-{[(rel-1S,3S,6R)-2-oxa-5-azabicyclo[4.1.0]heptan-3-yl]methoxy}-1,6-naphthyridine] |
|  | 73.2 | 2070 | C[C@@H]1O[C@H](COc2nc(-c3cnn(C(C)(C)C)c3)cc3ncccc23)CN[C@@H]1C (relative stereo) [Compound 2.81, 7-(1-tert-butyl-1H-pyrazol-4-yl)-5-{[rel-(2S,5R,6S)-5,6-dimethylmorpholin-2-yl]methoxy}-1,6-naphthyridine] |
|  | 59.3 |  | CC(C)(C)n1cc(-c2cc3ncccc3c(OC[C@@H]3CN[C@H]4CCC[C@H]4O3)n2)cn1 (relative stereo) [Compound 2.85, 5-{[rel-(2S,4aS,7aR)-octahydrocyclopenta[b][1,4]oxazin-2-yl]methoxy}-7-(1-tert-butyl-1H-pyrazol-4-yl)-1,6-naphthyridine] |
|  | 54.6 | > 1000 | CC(C)(C)n1cc(-c2cc3ncccc3c(O[C@@H]3CC[C@@H]4NCCO[C@@H]43)n2)cn1 (relative stereo) [Compound 2.90, 5-[rel-(4aS,7R,7aS)-octahydrocyclopenta[b][1,4]oxazin-7-yloxy]-7-(1-tert-butyl-1H-pyrazol-4-yl)-1,6-naphthyridine] |
|  | 51.8 | 1040 | CC(C)(C)n1cc(-c2cc3ncccc3c(O[C@H]3CC[C@@H]4NCCO[C@@H]43)n2)cn1 (relative stereo) [Compound 2.91, 5-[rel-(4aS,7S,7aS)-octahydrocyclopenta[b][1,4]oxazin-7-yloxy]-7-(1-tert-butyl-1H-pyrazol-4-yl)-1,6-naphthyridine] |
| 4240 | 347 |  | CC(C)(C)n1cc(-c2cc3ncccc3c(OC[C@H]3OC[C@@H]4C[C@H]3N4)n2)cn1 (relative stereo) [Compound 2.97, 7-(1-tert-butyl-1H-pyrazol-4-yl)-5-{[rel-(1R,2S,5S)-3-oxa-6-azabicyclo[3.1.1]heptan-2-yl]methoxy}-1,6-naphthyridine] |
|  | 1940 | > 10000 | CC(C)(C)n1cc(-c2cc3ncccc3c(OC[C@H]3O[C@H]4CCN[C@@H]3C4)n2)cn1 (single isomer, unassigned) [Compound 13.11] |
| > 5000 | 74.4 |  | CC(C)(C)n1cc(-c2cc3ncccc3c(OC[C@H]3O[C@H]4CCN[C@@H]3C4)n2)cn1 (single isomer, unassigned) [Compound 13.12] |
|  | 145 |  | CC(C)(C)n1cc(-c2cc3ncccc3c(OC[C@@H]3CN[C@H]4CCC[C@H]4O3)n2)cn1 (stereo in doubt) [Compound 2.94, 5-{[(2S,4aS,7aR)-octahydrocyclopenta[b][1,4]oxazin-2-yl]methoxy}-7-(1-tert-butyl-1H-pyrazol-4-yl)-1,6-naphthyridine] |
|  | 22.1 | 1850 | CC(C)(C)n1cc(-c2cc3ncccc3c(OC[C@H]3CN[C@@H]4CCC[C@@H]4O3)n2)cn1 (stereo in doubt) [Compound 2.95, 5-{[(2R,4aR,7aS)-octahydrocyclopenta[b][1,4]oxazin-2-yl]methoxy}-7-(1-tert-butyl-1H-pyrazol-4-yl)-1,6-naphthyridine] |

| EC50 [1] [nM] | EC50 [2] [nM] | EC50 ([1]; Mus musculus, BaF3, 48 h) [nM] | Compound |
| --- | --- | --- | --- |
|  | 2.4 | 930 | Cc1ccnc2cc(-c3cnn(C(C)C)c3)cc(OC[C@@H]3CNCC(C)(C)O3)c12 (stereo in doubt) [Compound 14.7, 5-[(6,6-dimethylmorpholin-2-yl)methoxy]-4-methyl-7-[1-(propan-2-yl)-1H-pyrazol-4-yl]quinoline] |
|  | 1170 | > 10000 | C=Cc1cnc2cc(-c3cnn(C(C)(C)C)c3)nc(OC[C@@H]3CNCC(C)(C)O3)c2c1 (stereo in doubt) [Compound 14.8, 7-(1-tert-butyl-1H-pyrazol-4-yl)-5-[(6,6-dimethylmorpholin-2-yl)methoxy]-3-ethenyl-1,6-naphthyridine] |
|  | 44.2 | 4670 | CC(C)(C)n1cc(-c2cc(OC[C@@H]3CNCCO3)c3cccnc3c2)cn1 [Compound 1, 7-(1-tert-butyl-1H-pyrazol-4-yl)-5-{[(2S)-morpholin-2-yl]methoxy}quinoline] |
|  | 166 | 2430 | Cn1cc(-c2cc(OC[C@@H]3CNCCO3)c3cccnc3c2)cn1 [Compound 2, 7-(1-methyl-1H-pyrazol-4-yl)-5-{[(2S)-morpholin-2-yl]methoxy}quinoline] |
|  | 3620 | 4830 | Cc1noc(C)c1-c1cc2ncccc2c(OC[C@@H]2CNCCO2)n1 [Compound 2.14, 7-(3,5-dimethyl-1,2-oxazol-4-yl)-5-{[(2S)-morpholin-2-yl]methoxy}-1,6-naphthyridine] |
|  | 734 | > 10000 | c1cnc2cc(-c3ccn[nH]3)nc(OC[C@@H]3CNCCO3)c2c1 [Compound 2.28, 5-{[(2S)-morpholin-2-yl]methoxy}-7-(1H-pyrazol-5-yl)-1,6-naphthyridine] |
|  | 1020 | > 10000 | c1cnc2cc(-c3cncs3)nc(OC[C@@H]3CNCCO3)c2c1 [Compound 2.29, 5-{[(2S)-morpholin-2-yl]methoxy}-7-(1,3-thiazol-5-yl)-1,6-naphthyridine] |
|  | 206 | 6970 | Cc1ncc(-c2cc3ncccc3c(OC[C@@H]3CNCCO3)n2)s1 [Compound 2.30, 7-(2-methyl-1,3-thiazol-5-yl)-5-{[(2S)-morpholin-2-yl]methoxy}-1,6-naphthyridine] |
|  | 1740 | > 10000 | Cn1ccc(-c2cc3ncccc3c(OC[C@@H]3CNCCO3)n2)n1 [Compound 2.31, 7-(1-methyl-1H-pyrazol-3-yl)-5-{[(2S)-morpholin-2-yl]methoxy}-1,6-naphthyridine] |
|  | 390 | 1590 | Clc1ccc(-c2cc3ncccc3c(OC[C@@H]3CNCCO3)n2)s1 [Compound 2.33, 7-(5-chlorothiophen-2-yl)-5-{[(2S)-morpholin-2-yl]methoxy}-1,6-naphthyridine] |
|  | 394 | 1560 | Clc1csc(-c2cc3ncccc3c(OC[C@@H]3CNCCO3)n2)c1 [Compound 2.34, 7-(4-chlorothiophen-2-yl)-5-{[(2S)-morpholin-2-yl]methoxy}-1,6-naphthyridine] |
|  | 667 | 619 | Cc1cc(-c2cc3ncccc3c(OC[C@@H]3CNCCO3)n2)sc1Cl [Compound 2.35, 7-(5-chloro-4-methylthiophen-2-yl)-5-{[(2S)-morpholin-2-yl]methoxy}-1,6-naphthyridine] |
|  | 279 | 2050 | CCc1ccc(-c2cc3ncccc3c(OC[C@@H]3CNCCO3)n2)s1 [Compound 2.36, 7-(5-ethylthiophen-2-yl)-5-{[(2S)-morpholin-2-yl]methoxy}-1,6-naphthyridine] |
|  | 1230 | 2830 | Cc1cc(-c2cc3ncccc3c(OC[C@@H]3CNCCO3)n2)c(C)s1 [Compound 2.37, 7-(2,5-dimethylthiophen-3-yl)-5-{[(2S)-morpholin-2-yl]methoxy}-1,6-naphthyridine] |
|  | 1450 | > 10000 | Cn1cccc1-c1cc2ncccc2c(OC[C@@H]2CNCCO2)n1 [Compound 2.38, 7-(1-methyl-1H-pyrrol-2-yl)-5-{[(2S)-morpholin-2-yl]methoxy}-1,6-naphthyridine] |
|  | 243 | 1700 | Clc1cc(-c2cc3ncccc3c(OC[C@@H]3CNCCO3)n2)cs1 [Compound 2.39, 7-(5-chlorothiophen-3-yl)-5-{[(2S)-morpholin-2-yl]methoxy}-1,6-naphthyridine] |
